These results are taken from patent US20230270763A1, “METHOD OF TREATING C[…] CANNABINOIDS AND DERIVATIVES” (PASCAL BIOSCIENCES INC., priority 2020, published 2023).

For data set [1], the system named is SARS-CoV-2 Everett strain. Put plainly: protection of Calu-3 cells from SARS-CoV-2 Everett strain-induced cytotoxicity (CellTiter Glo 2.0). To be noted: read-out: IC50, protection of Calu-3 cells from SARS2-induced cytotoxicity. For orientation: Cellular ATP, detected with luciferase, serves as a proxy for viable cell number.
The subject of data set [2] is SARS-CoV-2 Toronto strain. Put plainly: cytopathic effect screening assay, SARS-CoV-2 Toronto strain in Vero E6 cells. Format: cell-based. Conditions: Severe acute respiratory syndrome coronavirus 2, Vero C1008; Vero E6 cells mixed with virus; CBD 20 nM to 10 μM; cell viability after 72 hours; FIG. 1; read-out: EC50, inhibition of cell death of virally-infected cells. A general note: Cytopathic effects are the visible damage that an infection or toxin causes in cultured cells.

Data set [3] deals with Vero E6 cells. Conditions: Vero E6 cultures not exposed to virus; 20 nM to 10 μM; 72 hours.
Data set [4] concerns SARS-CoV-2. Conditions: reported by Nguyen et al., March 2021; cited from earlier work.
[5] abbreviates: Severe acute respiratory syndrome coronavirus 2, Calu-3, 96 h.

The structures appear in SMILES notation. Like-named read-outs stand apart in the source and are kept apart here.

`C=C(C)[C@@H]1CCC(C)=C[C@H]1c1c(O)cc(CCCCC)cc1O` [CBD, (−)-Cannabidiol]: the concentration for half-maximal inhibition (IC50) – broadly, the concentration that gives 50% inhibition – in data set [1] (setting [5]) was 120 nM. In addition, in data set [2], the EC50 (in general, the concentration needed to bring the measured effect to its halfway point) was found to be 8500 nM. Besides, the “cytotoxicity over the concentration range tested” value in data set [3] is listed as “No cytotoxicity”. For the same compound, in data set [4], the “effect on SARS-CoV-2 replication” value was “inhibits SARS-CoV-2 replication”.

As for `C=C(C)[C@@H]1CCC(C)=C[C@H]1c1c(O)cc(CCC)cc1O` [cannabidivarin, (−)-Cannabidivarin], the 50% inhibitory concentration (IC50) in data set [1] (setting [5]) came to 43 nM.

Take `CCCCCc1cc(O)c(C/C=C(\C)CCC=C(C)C)c(O)c1` [cannabigerol, Cannabigerol]: the half-inhibitory concentration (IC50) in data set [1] (Calu-3, 96 hours, MOI 0.5 to 2.0, three-fold dilutions from 10 μM) is 120 nM.
